The text below walks through data of patent US20220306640A1, “HYDANTOIN DERIVATIVE” (ONO PHARMACEUTICAL CO., LTD., priority 2019, published 2022).

One assay deals with T1, DDR1 (Homo sapiens, UniProt Q08345).
T1 construct: purchased Invitrogen
Kind of assay: Measurement of DDR1 inhibitory activity (LanthaScreen system, in vitro test). It counts as binding. The note with it: GST-DDR1, Kinase tracer 178. How it is done: Biological Experiment Example 1: Measurement of an DDR1 Inhibitory Activity (In Vitro Test)
An DDR1 enzyme inhibitory activity was measured by using LanthaScreen (registered trademark) system (Invitrogen) based on the attached instruction. The reagents used are shown below.
Assay buffer: 5× Kinase buffer A (Invitrogen) was diluted 5-fold with ddH2O.
1× Kinase Buffer A: 50 mmol/L HEPES pH 7.5, 10 mmol/L MgCl2, 1 mmol/L EGTA, 0.01% Brij-35.
2×DDR1 Solution: a solution containing […] GST-DDR1 (Invitrogen) was prepared by using Assay buffer.
2× Tracer/antibody solution: a solution containing 20 nmol/L Kinase tracer 178 (Invitorgen) and […] Eu-Anti-GST Antibody (Invitorogen) was prepared by using Assay buffer. Test compound solution: a solution containing a test compound of 2-fold concentration with respect to the final concentration was prepared by 50-fold diluting a DMSO solution of test compound of each concentration with the Assay buffer.
• 1 Add 5 μL 2×DDR1 Solution to proxiplate (PerkinElmer) • 2 Add 5 μL test compound solution to proxiplate • 3 Incubate for 15 min at RT • 4 Add 5 μL 2× Tracer/Antibody solution to all well Incubate 1 h at RT • 6 Read LANCE Eu on Envision (PerkinElmer) (Ex: 320 nm/Em 665 nm & 615 nm)
In the low control group, 5 μL Assay buffer was added instead of 5 μL 2×DDR1 Solution and the final 1% DMSO solution was added instead of test compound solution.
In the high control group, the final 1% DMSO solution was added instead of test compound solution.
(§1) The inhibition rate (%) in the test compound group was calculated based on the following mathematical formula.
% inhibition=100−100*(assay value of test compound−A)/(B−A) [Math. 1]
A: average value of low control group B: average value of high control group
Values of 50% inhibition rate (IC50 values) of the test compound were calculated from the inhibition curve based on the inhibition rate of the test compounds in each concentration.
Background: Time-resolved FRET reads energy transfer from a long-lived donor to a nearby acceptor.

Assay [1] concerns the target T2, DDR1 phosphorylation in T-47D (ATCC, HTB-133) cells (Homo sapiens, UniProt Q08345).
T2 construct: host or cells: T-47D
Kind of assay: Measurement of DDR1 phosphorylation suppression rate by using T-47D cells (p-DDR1 ELISA). It counts as cell-based. The note with it: collagen Type I 10 μg/ml, p-DDR1 (panTyr) ELISA. How it is done:
Biological Example 2: Measurement of DDR1 Phosphorylation Suppression Rate by Using T-47D (ATCC, HTB-133) cells
T-47D cells should be in culture for at least 7 days before using in the assay.
Cell culture medium: RPMI 1640 (HyClone) containing 10% Heat-FBS (HyClone) was prepared.
Assay medium: RPMI 1640 containing 0.1% BSA (solarbio) was prepared.
Collagen Type I (rat tail) solution: Assay medium containing 200 μg/mL Collagen I, rat tail (Gibco) was prepared.
Cell lysis buffer: a solution containing IX cell lysis buffer (CST) and 1× protease and phosphatase inhibitor cocktail (Thermofisher) was prepared by using ddH2O.
• 1. Collect cells into tubes and centrifuge at 1200 rpm for 5 min, at room temperature. Re-suspend the cells in cell culture medium pre-warmed to room temperature. • 2. Count cells and suspend at a density of 2×10^5/ml of cell culture medium. Plate the cells at 100 μL per well (Corning 3599 96-well plate, 2×10^4 cells per well final), mixing the cells well between each draw of the pipettor. • 3. Put lid on cell plate and place into the incubator at 37° C., 5% CO2 • 4. Culture cell overnight
• 1. Remove the plate from the incubator • 2. Cell medium is replaced with the 90 μL Assay medium.
• 1. Compound plates are pre-titrated using DMSO (10-fold dilution for 6 points) • 2. Dilute test compound using assay medium; Transfer 1 μL compound to other 96 well plate and then add 49 μL assay medium to each well (50 fold dilution). • 3. Add 5 μL the diluted test compound solution to the appropriate wells by pipettor. Compound final concentration is start from […] and DMSO final concentration is 0.1 • 4. Tap the plates gently to mix in compound. Reseal the plate with a lid and place in the incubator again, for 24 h.
• 1. Diluted collagen Type I in assay medium to the 200 μg/ml concentration • 2. Using the pipettor adds 5 μL of 200 μg/mL collagen Type I solution to the cell plate (compound well and High control well, collagen final conc. is 10 μg/ml). Add assay medium buffer to the control wells (low control well) • 3. Reseal the plate with a lid and place in the incubator. Incubate 24 h for collagen type I
• 1. After incubation, add 100 µL per well Cell lysis buffer. • 2. Incubate 30 min on ice, then freezing to −80° C. to get the fully cell lysates. • 3. Transfer cell lysates to new plate • 4. Centrifuge for 30 min (×4000 rpm) at 4° C. Then transfer the supernatant to a new plate.
p-DDR1 (panTyr) ELISA kit (CST) was used in the study. The measurement was carried out according to the attached instruction.
as §1
% inhibition=100−100*(assay value of test compound−A)/(B−A) [Math. 2]
A: average value of low control group B: average value of high control group Values of 50% inhibition rate (IC50 values) of the test compound were calculated from the inhibition curve based on the inhibition rate of the test compounds in each concentration.
(In general: An ELISA detects its analyte on a solid surface through an enzyme-linked reagent.)

T2 sequence (Q08345 19-913): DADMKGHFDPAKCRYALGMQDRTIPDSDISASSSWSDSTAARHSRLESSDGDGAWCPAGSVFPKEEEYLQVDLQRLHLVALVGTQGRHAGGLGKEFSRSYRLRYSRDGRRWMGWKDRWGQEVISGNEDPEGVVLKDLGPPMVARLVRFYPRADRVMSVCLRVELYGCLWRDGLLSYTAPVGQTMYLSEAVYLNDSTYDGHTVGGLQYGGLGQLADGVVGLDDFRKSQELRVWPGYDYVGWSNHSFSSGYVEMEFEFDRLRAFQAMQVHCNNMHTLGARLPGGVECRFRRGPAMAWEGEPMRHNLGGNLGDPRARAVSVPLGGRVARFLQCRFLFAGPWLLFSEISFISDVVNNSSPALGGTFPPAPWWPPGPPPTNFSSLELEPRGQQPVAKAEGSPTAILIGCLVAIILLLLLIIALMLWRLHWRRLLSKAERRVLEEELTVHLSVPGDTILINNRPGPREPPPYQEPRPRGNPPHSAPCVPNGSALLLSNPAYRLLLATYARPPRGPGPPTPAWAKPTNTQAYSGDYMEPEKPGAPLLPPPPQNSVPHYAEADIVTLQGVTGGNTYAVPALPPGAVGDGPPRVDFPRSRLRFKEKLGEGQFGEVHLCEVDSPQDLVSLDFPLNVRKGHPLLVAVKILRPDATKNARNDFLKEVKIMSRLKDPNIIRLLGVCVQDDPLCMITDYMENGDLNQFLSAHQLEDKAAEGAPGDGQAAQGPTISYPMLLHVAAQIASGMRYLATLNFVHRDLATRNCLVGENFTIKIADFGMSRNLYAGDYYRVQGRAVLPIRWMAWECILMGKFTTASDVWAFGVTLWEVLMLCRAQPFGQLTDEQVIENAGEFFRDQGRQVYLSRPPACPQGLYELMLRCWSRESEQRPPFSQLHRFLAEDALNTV
T1 sequence (Q08345 19-913): as above

For orientation: IC50 means the concentration that inhibits the measured activity by half. `O=C1CN(c2cc(F)cc(C(F)(F)F)c2)C(=O)N1[C@H]1CC[C@H](Oc2cnc3ccsc3c2)CC1` [Example 2(125), 1-[3-fluoro-5-(trifluoromethyl)phenyl]-3-[trans-4-(thieno[3,2-b]pvridin-6-yloxy)cyclohexyl]-2,4-imidazolidinedione]: the results for the IC50 (against DDR1; in assay [1]) were 20 nM and 5 nM, respectively.

As to `Cn1cc(-c2cc(O[C@H]3C[C@H](N4C(=O)CN(c5cc(CN6CCNCC6)cc(C(F)(F)F)c5)C4=O)C3)ccn2)cn1` [Example 2(126), 3-(trans-3-{[2-(1-methyl-1H-pyrazol-4-yl)-4-pyridinyl]oxy}cyclobutyl)-1-[3-(1-piperazinylmethyl)-5-(trifluoromethyl)phenyl]-2,4-imidazolidinedione], the IC50 is 10 nM at DDR1 and 6 nM in assay [1].

As to `CC(C)c1cc(N2C(=O)CN(c3cncc(C(F)(F)F)c3)C2=O)ccc1Oc1ccnc2[nH]c(=O)[nH]c12` [Example 2(149), 3-{3-isopropyl-4-[(2-oxo-2,3-dihydro-1H-imidazo[4,5-b]pyridin-7-yl)oxy]phenyl}-1-[5-(trifluoromethyl)-3-pyridinyl]-2,4-imidazolidinedione], the IC50 (against DDR1; in assay [1]) was 3 nM each time.

In the case of `Cc1cc(N2C(=O)CN(c3cncc(C(F)(F)F)c3)C2=O)ccc1Oc1ccnc2ccnn12` [Example 3(47), 3-[3-methyl-4-(pyrazolo[1,5-a]pyrimidin-7-yloxy)phenyl]-1-[5-(trifluoromethyl)-3-pyridinyl]-2,4-imidazolidinedione], the IC50 (against DDR1; in assay [1]) was 1 nM in each case.

In the case of `O=C1CN(c2cncc(C(F)(F)F)c2)C(=O)N1C1CC2CC1CC2Oc1ncnc2[nH]ccc12` (stereo not shown) [Example 3(63), 3-[5-(7H-pyrrolo[2,3-d]pyrimidin-4-yloxy)bicyclo[2.2.1]hept-2-yl]-1-[5-(trifluoromethyl)-3-pyridinyl]-2,4-imidazolidinedione], the IC50 at DDR1 stood at 7 nM; in assay [1], 1 nM.

For `O=C1CN(c2cncc(C(F)(F)F)c2)C(=O)N1C1CC2(CC(Oc3ncnc4[nH]ccc34)C2)C1` (stereo not shown) [Example 3(66), 3-[6-(7H-pyrrolo[2,3-d]pyrimidin-4-yloxy)spiro[3.3]hept-2-yl]-1-[5-(trifluoromethyl)-3-pyridinyl]-2,4-imidazolidinedione], the IC50 (at DDR1; in assay [1]) was 1 nM in each case.

For the compound `CC(C)c1cc(N2C(=O)CN(c3ccc(CN4CCN(C)CC4)c(C(F)(F)F)c3)C2=O)ccc1Oc1ccnc(N)n1` [Example 3(78), 3-{4-[(2-amino-4-pyrimidinyl)oxy]-3-isopropylphenyl}-1-{4-[(4-methyl-1-piperazinyl)methyl]-3-(trifluoromethyl)phenyl}-2,4-imidazolidinedione], the IC50 at DDR1 was found to be 4 nM; in assay [1] it was 2 nM.

On to `CCc1cc(N2C(=O)CN(c3cc(C(C)(C)C(F)(F)F)on3)C2=O)ccc1Oc1ccnc(N)n1` [Example 3(101), 3-{4-[(2-amino-4-pyrimidinyl)oxy]-3-ethylphenyl}-1-[5-(1,1,1-trifluoro-2-methyl-2-propanyl)-1,2-oxazol-3-yl]-2,4-imidazolidinedione], for which the IC50 at DDR1 came to 3 nM; in assay [1], 2 nM.

Turning to `Cc1cc(Oc2ccnc(N)n2)ccc1N1C(=O)CN(c2cc(F)cc(C(F)(F)F)c2)C1=O` [Example 3(111), 3-{4-[(2-amino-4-pyrimidinyl)oxy]-2-methylphenyl}-1-[3-fluoro-5-(trifluoromethyl)phenyl]-2,4-imidazolidinedione], the IC50 (at DDR1; in assay [1]) was 1 nM in each case.

Regarding `CC#Cc1cc(Oc2ccnc(N)n2)ccc1N1C(=O)CN(c2cncc(C(F)(F)F)c2)C1=O` [Example 3(120), 3-{4-[(2-amino-4-pyrimidinyl)oxy]-2-(1-propyn-1-yl)phenyl}-1-[5-(trifluoromethyl)-3-pyridinyl]-2,4-imidazolidinedione], the values for the IC50 (against DDR1; in assay [1]) were 7 nM and 5 nM, respectively.

As to `Nc1nccc(Oc2ccc(N3C(=O)CN(c4cncc(C(F)(F)F)c4)C3=O)c(-c3ccccc3)c2)n1` [Example 3(122), 3-{5-[(2-amino-4-pyrimidinyl)oxy]-2-biphenylyl}-1-[5-(trifluoromethyl)-3-pyridinyl]-2,4-imidazolidinedione], the IC50 against DDR1 stood at 5 nM; in assay [1], 7 nM.

Consider `CCc1cc(N2C(=O)CN(c3cncc(C(F)(F)F)c3)C2=O)ccc1Oc1ccnc2[nH]ccc12` [Example 3(176), 3-[3-ethyl-4-(1H-pyrrolo[2,3-b]pyridin-4-yloxy)phenyl]-1-[5-(trifluoromethyl)-3-pyridinyl]-2,4-imidazolidinedione], for which the IC50 against DDR1 was 2 nM; in assay [1] it was 0.1 nM.

`CCc1cc(N2CCN(c3cccc(C(F)(F)F)c3)C2=O)ccc1Oc1ccnc(N)n1` [Example 4(1), 1-{4-[(2-amino-4-pyrimidinyl)oxy]-3-ethylphenyl}-3-[3-(trifluoromethyl)phenyl]-2-imidazolidinone]: the IC50 against DDR1 amounted to 3 nM; in assay [1], 1 nM.

As for `COc1cc2nccc(Cc3ccc(N4C(=O)CN(c5cccc(C(F)(F)F)c5)C4=O)cc3)c2cc1OC` [Example 6(1), 3-{4-[(6,7-dimethoxy-4-quinolinyl)methyl]phenyl}-1-[3-(trifluoromethyl)phenyl]-2,4-imidazolidinedione], the figures for the half-maximal inhibitory concentration (IC50) (at DDR1; in assay [1]) were 5 nM and 2 nM, respectively.

In the case of `C=Cc1cc(N2C(=O)CN(c3cncc(C(F)(F)F)c3)C2=O)ccc1Nc1ncnc2cc(OC)cc(F)c12` [Example 7(6), 3-{4-[(5-fluoro-7-methoxy-4-quinazolinyl)amino]-3-vinylphenyl}-1-[5-(trifluoromethyl)-3-pyridinyl]-2,4-imidazolidinedione], the IC50 came out at 3 nM at DDR1 and 2 nM in assay [1].

For `COc1cc2nccc(N3CCc4cc(N5C(=O)CN(c6cncc(C(F)(F)F)c6)C5=O)ccc43)c2cc1OC` [Example 9(1), 3-[1-(6,7-dimethoxy-4-quinolinyl)-2,3-dihydro-1H-indol-5-yl]-1-[5-(trifluoromethyl)-3-pyridinyl]-2,4-imidazolidinedione], the IC50 against DDR1 was 10 nM; in assay [1], 20 nM.

Consider `O=C1CN(c2cncc(C3(C(F)(F)F)CCO3)c2)C(=O)N1c1ccc(Oc2cnc3[nH]ncc3c2)cc1` (stereo not shown) [Example 13, 3-[4-(1H-pyrazolo[3,4-b]pyridin-5-yloxy)phenyl]-1-{5-[2-(trifluoromethyl)-2-oxetanyl]-3-pyridinyl}-2,4-imidazolidinedione], for which the IC50 (at DDR1; in assay [1]) was 3 nM in each case.
